From paper PMC8198181, “Evaluation of Substituted N-Phenylpiperazine Analogs as D3 vs. D2 Dopamine Receptor Subtype Selective Ligands” (Molecules, 2021)
Where two headings read alike, the source gives them in different places.

Assays:
[1] = molecular target: norepinephrine transporter (NET) (Homo sapiens, UniProt P23975); experiment: PDSP off-target binding; settings: read-out: binding affinity NET (PDSP)
From the text: (§1) Further evaluation of the off-target binding of compound 6a was provided by the Psychoactive Drug Screening Program (PDSP) for a range of receptors including serotonin receptor subtypes, α-adrenergic receptor subtypes, β-adrenergic receptor subtypes, histaminergic receptor subtypes, muscarinic receptor subtypes, opioid receptor subtypes and the two sigma receptor subtypes.

5-HT7A receptor = 5-HT7A receptor (Homo sapiens, UniProt P34969); experiment: PDSP off-target binding; settings: read-out: binding affinity 5-HT7A (PDSP)
From the text: as §1

5-HT2B receptor = 5-HT2B receptor (Homo sapiens, UniProt P41595); experiment: PDSP off-target binding; settings: read-out: binding affinity 5-HT2B (PDSP)
From the text: as §1

α2a adrenergic receptor = α2a adrenergic receptor (Homo sapiens, UniProt P08913); experiment: PDSP off-target binding; settings: read-out: binding affinity α2a (PDSP)
From the text: as §1

sigma-2 receptor = sigma-2 receptor (Homo sapiens, UniProt Q5BJF2); experiment: PDSP off-target binding; settings: read-out: binding affinity sigma-2 (PDSP)
From the text: as §1

α1b adrenergic receptor = α1b adrenergic receptor (Homo sapiens, UniProt P35368); experiment: PDSP off-target binding; settings: read-out: binding affinity α1b (PDSP)
From the text: as §1

D5 dopamine receptor = D5 dopamine receptor (Homo sapiens, UniProt P21918); experiment: PDSP off-target binding; settings: in words
From the text: as §1

α2b adrenergic receptor = α2b adrenergic receptor (Homo sapiens, UniProt P18089); experiment: PDSP off-target binding; settings: read-out: binding affinity α2b (PDSP)
From the text: as §1

α2c adrenergic receptor = α2c adrenergic receptor (Homo sapiens, UniProt P18825); experiment: PDSP off-target binding; settings: read-out: binding affinity α2c (PDSP)
From the text: as §1

α1a adrenergic receptor = α1a adrenergic receptor (Homo sapiens, UniProt P35348); experiment: PDSP off-target binding; settings: read-out: binding affinity α1a (PDSP)
From the text: as §1

sigma-1 receptor = sigma-1 receptor (Homo sapiens, UniProt Q99720); experiment: PDSP off-target binding; settings: read-out: binding affinity sigma-1 (PDSP)
From the text: as §1

D1 dopamine receptor = D1 dopamine receptor (Homo sapiens, UniProt P21728); experiment: PDSP off-target binding; settings: in words
From the text: as §1

[2] = molecular target: serotonin transporter (SERT) (Homo sapiens, UniProt P31645); experiment: PDSP off-target binding; settings: read-out: binding affinity SERT (PDSP)
From the text: as §1

D3 dopamine receptor [3] = molecular target: T1, D3 dopamine receptor (Homo sapiens, UniProt P35462); experiment: PDSP off-target binding; settings: read-out: binding affinity D3 (PDSP)
From the text: as §1

D2 dopamine receptor = D2 dopamine receptor (Homo sapiens, UniProt P14416); experiment: PDSP off-target binding; settings: in words
From the text: as §1

[4] = molecular target: dopamine transporter (DAT) (Homo sapiens, UniProt Q01959); experiment: PDSP off-target binding; settings: read-out: binding affinity DAT (PDSP)
From the text: as §1

α1d adrenergic receptor = α1d adrenergic receptor (Homo sapiens, UniProt P25100); experiment: PDSP off-target binding; settings: read-out: binding affinity α1d (PDSP)
From the text: as §1

D4 dopamine receptor = D4 dopamine receptor (Homo sapiens, UniProt P21917); experiment: PDSP off-target binding; settings: read-out: binding affinity D4 (PDSP)
From the text: as §1

D3 dopamine receptor [5] = molecular target: T1, D3 dopamine receptor
[6] = system: unilateral 6-hydroxydopamine lesioned (hemiparkinsonian) rats; experiment: L-dopa-dependent abnormal involuntary movement (AIM) inhibition in hemiparkinsonian rats; assay type: in vivo, rat; settings: unilaterally lesioned male rats, 10 mg/kg, L-dopa and benserazide 8 mg/kg each
Experimental: First, we have previously published that D3 receptor selective compounds could attenuate a hallucinogen-dependent head twitch response (HTR) in male DBA/2J mice. […] Second, we previously reported that D3 vs. D2 dopamine receptor subtype selective ligands could attenuate L-dopa dependent abnormal involuntary movement (AIM) scores in unilaterally lesioned (hemiparkinsonian) male rats, which is a model for L-dopa-Induced Dyskinesia (LID). […]
AIMs ratings were performed as previously described. The severity of the AIMs was quantified using lesioned rats that were observed individually in their home cages at 15 min intervals, starting 15 min after the injection of L-dopa for approximately 2 h. The AIMs were scored in four categories: (1) axial AIMs, including dystonic or choreiform torsion of the trunk and neck towards the side contralateral to the lesion; (2) limb AIMs, including jerky and/or dystonic movements of the forelimb contralateral to the lesion; (3) orolingual AIMs, including twitching of orofacial muscles with empty masticatory movements and protrusion of the tongue towards the side contralateral to the lesion and (4) locomotive AIMs, including increased locomotion with contralateral side bias. […]
The effect of Group was assessed using two-way analysis of variance (ANOVA) with time as the repeated measure. […]

T1 sequence (P35462 whole entry): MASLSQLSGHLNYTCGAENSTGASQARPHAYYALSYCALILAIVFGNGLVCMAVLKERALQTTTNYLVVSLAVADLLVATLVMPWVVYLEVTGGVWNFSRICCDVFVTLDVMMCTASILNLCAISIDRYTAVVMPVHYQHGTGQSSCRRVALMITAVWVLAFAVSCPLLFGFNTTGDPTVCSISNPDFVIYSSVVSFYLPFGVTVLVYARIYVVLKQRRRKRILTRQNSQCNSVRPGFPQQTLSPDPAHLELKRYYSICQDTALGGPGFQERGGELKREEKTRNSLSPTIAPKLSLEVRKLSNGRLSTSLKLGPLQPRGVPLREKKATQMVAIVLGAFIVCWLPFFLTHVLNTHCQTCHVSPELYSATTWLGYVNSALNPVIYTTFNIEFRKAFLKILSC
Chain of α1b adrenergic receptor (P35368 whole entry): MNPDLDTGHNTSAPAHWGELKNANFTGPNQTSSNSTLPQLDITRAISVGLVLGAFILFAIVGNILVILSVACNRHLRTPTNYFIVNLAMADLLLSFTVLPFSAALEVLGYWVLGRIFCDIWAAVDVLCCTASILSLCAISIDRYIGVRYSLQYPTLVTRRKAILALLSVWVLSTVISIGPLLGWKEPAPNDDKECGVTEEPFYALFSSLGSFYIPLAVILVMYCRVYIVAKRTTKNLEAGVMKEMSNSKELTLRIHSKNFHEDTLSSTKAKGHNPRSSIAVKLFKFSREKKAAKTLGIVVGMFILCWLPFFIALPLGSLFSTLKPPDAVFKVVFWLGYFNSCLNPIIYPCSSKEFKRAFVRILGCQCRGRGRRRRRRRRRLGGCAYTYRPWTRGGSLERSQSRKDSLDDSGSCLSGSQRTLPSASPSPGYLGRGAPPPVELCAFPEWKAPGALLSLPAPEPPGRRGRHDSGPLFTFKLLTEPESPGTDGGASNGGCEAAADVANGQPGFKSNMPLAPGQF
Chain of α1d adrenergic receptor (P25100 whole entry): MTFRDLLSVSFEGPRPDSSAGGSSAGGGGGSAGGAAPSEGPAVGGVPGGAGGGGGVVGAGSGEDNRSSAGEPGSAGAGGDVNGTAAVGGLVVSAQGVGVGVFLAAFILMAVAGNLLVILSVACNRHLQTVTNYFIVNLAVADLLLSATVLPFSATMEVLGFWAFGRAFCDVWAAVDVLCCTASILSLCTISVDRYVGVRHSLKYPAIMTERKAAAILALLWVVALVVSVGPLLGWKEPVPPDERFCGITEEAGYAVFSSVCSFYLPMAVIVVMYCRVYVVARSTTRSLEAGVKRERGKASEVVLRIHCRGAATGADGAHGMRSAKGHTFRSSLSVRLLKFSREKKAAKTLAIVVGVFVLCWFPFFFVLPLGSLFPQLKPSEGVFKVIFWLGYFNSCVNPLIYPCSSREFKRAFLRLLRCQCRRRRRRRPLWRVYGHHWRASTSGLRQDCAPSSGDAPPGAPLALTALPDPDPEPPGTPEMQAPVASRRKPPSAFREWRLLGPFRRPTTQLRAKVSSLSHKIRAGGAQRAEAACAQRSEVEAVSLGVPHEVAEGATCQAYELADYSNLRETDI
Chain of 5-HT7A receptor (P34969 1-445 isoform P34969-2): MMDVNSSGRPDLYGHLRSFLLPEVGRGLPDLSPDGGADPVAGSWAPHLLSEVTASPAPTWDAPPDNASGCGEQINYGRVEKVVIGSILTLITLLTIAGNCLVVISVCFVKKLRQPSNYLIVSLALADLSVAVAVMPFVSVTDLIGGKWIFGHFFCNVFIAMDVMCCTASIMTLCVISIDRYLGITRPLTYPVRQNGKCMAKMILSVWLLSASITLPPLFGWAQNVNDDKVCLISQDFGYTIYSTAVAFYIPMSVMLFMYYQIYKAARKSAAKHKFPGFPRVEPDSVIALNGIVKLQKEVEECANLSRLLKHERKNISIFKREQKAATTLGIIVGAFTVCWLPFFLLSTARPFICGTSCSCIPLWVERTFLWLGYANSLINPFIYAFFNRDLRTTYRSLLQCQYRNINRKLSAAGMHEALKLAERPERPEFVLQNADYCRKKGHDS
Chain of α2b adrenergic receptor (P18089 whole entry): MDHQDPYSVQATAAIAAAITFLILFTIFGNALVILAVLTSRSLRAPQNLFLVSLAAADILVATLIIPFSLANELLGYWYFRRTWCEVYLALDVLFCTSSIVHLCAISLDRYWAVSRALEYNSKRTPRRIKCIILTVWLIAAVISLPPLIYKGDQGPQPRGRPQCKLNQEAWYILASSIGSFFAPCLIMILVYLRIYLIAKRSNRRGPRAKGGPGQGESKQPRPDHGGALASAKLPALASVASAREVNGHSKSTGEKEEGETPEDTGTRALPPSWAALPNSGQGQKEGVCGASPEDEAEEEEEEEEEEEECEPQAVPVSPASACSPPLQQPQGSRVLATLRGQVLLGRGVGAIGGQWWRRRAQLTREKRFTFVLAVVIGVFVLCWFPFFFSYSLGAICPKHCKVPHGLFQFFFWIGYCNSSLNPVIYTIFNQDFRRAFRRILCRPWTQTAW
Chain of α2a adrenergic receptor (P08913 whole entry): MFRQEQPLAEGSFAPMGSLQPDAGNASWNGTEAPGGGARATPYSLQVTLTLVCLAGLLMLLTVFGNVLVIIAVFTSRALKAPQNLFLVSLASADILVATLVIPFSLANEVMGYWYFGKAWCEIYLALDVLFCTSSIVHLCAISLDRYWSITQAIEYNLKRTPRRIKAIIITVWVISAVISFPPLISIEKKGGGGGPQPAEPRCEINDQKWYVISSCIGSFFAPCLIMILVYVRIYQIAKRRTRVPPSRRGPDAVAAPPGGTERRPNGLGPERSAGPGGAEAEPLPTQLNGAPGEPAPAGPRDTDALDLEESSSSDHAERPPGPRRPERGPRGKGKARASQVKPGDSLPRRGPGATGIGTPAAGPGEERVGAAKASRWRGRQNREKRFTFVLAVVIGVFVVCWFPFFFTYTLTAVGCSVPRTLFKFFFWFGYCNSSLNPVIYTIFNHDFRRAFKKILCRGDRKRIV
Chain of serotonin transporter (SERT) (P31645 whole entry, species assumed): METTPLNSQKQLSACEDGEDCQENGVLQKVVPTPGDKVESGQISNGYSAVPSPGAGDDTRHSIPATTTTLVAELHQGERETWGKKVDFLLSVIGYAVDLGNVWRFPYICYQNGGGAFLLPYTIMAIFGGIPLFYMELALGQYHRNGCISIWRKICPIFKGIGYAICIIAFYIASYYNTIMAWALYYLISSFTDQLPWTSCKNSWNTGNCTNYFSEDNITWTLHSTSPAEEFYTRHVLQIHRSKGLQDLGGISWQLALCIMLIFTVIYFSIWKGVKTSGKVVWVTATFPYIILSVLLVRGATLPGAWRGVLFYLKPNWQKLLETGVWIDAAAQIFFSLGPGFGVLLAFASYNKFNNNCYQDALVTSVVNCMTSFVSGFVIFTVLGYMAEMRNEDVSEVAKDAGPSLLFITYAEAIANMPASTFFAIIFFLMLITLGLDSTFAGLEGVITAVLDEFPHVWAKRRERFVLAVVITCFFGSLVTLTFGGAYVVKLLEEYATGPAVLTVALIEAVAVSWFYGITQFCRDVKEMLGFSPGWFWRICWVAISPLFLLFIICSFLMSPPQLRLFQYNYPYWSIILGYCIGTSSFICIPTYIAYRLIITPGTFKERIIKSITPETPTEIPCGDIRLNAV
Chain of D1 dopamine receptor (P21728 whole entry): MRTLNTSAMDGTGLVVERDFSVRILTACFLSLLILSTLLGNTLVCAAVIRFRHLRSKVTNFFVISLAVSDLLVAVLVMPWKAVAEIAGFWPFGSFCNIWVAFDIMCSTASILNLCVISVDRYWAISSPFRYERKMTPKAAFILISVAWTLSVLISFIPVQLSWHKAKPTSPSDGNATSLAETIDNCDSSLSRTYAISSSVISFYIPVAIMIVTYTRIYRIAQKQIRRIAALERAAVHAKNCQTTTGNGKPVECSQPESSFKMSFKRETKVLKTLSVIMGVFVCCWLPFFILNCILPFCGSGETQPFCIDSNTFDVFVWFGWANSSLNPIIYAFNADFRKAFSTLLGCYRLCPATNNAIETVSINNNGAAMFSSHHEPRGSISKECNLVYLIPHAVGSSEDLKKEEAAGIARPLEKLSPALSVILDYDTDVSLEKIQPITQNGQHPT
Chain of norepinephrine transporter (NET) (P23975 whole entry, species assumed): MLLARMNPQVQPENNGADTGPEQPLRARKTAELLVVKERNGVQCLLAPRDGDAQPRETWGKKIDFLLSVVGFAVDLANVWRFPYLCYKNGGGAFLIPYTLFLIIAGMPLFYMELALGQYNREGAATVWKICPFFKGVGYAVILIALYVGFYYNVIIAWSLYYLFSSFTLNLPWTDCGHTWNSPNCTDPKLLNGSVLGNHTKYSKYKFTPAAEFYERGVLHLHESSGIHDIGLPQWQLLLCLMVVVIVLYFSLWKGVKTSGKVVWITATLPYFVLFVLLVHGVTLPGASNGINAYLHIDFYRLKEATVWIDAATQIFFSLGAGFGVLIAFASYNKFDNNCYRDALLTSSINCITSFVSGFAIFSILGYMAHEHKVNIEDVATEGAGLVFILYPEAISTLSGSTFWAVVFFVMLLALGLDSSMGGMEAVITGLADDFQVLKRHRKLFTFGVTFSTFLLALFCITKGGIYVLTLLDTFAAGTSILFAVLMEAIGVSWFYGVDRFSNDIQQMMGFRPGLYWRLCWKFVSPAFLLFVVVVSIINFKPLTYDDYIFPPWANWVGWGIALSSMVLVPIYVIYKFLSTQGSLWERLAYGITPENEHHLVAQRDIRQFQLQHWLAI
Chain of D2 dopamine receptor (P14416 whole entry): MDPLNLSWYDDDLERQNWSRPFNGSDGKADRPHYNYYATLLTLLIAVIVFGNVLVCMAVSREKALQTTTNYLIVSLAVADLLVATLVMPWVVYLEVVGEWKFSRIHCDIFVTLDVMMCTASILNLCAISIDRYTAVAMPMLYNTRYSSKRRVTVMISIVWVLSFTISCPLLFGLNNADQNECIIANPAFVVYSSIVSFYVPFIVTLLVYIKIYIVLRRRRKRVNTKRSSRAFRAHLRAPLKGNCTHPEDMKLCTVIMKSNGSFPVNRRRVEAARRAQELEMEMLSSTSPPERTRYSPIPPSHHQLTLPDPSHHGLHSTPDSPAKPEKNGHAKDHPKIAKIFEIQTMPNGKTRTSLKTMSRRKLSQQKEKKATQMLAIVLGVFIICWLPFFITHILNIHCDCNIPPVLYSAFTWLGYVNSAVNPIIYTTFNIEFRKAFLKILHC

Ki [1]: > 650 nM | Ki (5-HT7A receptor): 73.6 nM | Ki (5-HT2B receptor): 36.3 nM | Ki (α2a adrenergic receptor): 15.2 nM | Ki (sigma-2 receptor): 33.1 nM | Ki (α1b adrenergic receptor): > 100 nM | binding affinity D5 (PDSP) (D5 dopamine receptor): low affinity binding | Ki (α2b adrenergic receptor): > 100 nM | Ki (α2c adrenergic receptor): 27.1 nM | Ki (α1a adrenergic receptor): 9.8 nM | Ki (sigma-1 receptor): > 175 nM | binding affinity D1 (PDSP) (D1 dopamine receptor): low affinity binding | Ki [2]: > 750 nM | Ki (D3 dopamine receptor [3]): 0.2 nM | binding affinity D2 (PDSP) (D2 dopamine receptor): low affinity binding | Ki [4]: > 190 nM | Ki (α1d adrenergic receptor): 16.6 nM | Ki (D4 dopamine receptor): > 1500 nM | Ki (D3 dopamine receptor [5]): 1.4 ± 0.2 nM | D2:D3 Selectivity (D3 dopamine receptor [5]; ratio of D2 and D3 Ki values (Table 1)): 467
SMILES: O=C(NCCCCN1CCN(c2ccccc2F)CC1)c1ccc(-c2ccsc2)cc1 [Compound 6a]
L-dopa dependent AIM scores [6]: attenuate the AIM scores
